Columns and labels:
[1] = system: velvetleaf; experiment: Test A postemergence; type: in vivo, Abutilon theophrasti; details: Postemergence
Outline: (§1)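 Injury readout: eye-scored versus untreated controls, 0 to 100. Exposure period: ~10 days, greenhouse. Application: soil-directed spray over sown seed (pre) or spray on seedlings 2–10 cm tall with one or two leaves (post), compound carried in non-phytotoxic solvent including surfactant.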

[2] = system: corn; experiment: Test C preemergence; type: in vivo, Zea mays; details: preemergence; for Plant response rating, Corn: 125 g ai/ha, scale 0 to 100, 0 = no effect, 100 = complete control
Outline: (§2)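 Pre- and postemergence greenhouse screen; vehicle was a non-phytotoxic solvent mix with surfactant. Preemergence: treatment applied right after sowing into loam and sand. Postemergence: treated at 1–4 leaves. Visual rating at 13–15 days, 100 = complete control.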

[3] = system: oilseed rape; experiment: Test C preemergence; type: in vivo, Brassica napus; details: preemergence; for Plant response rating, Oilseed Rape: 125 g ai/ha, scale 0 to 100, 0 = no effect, 100 = complete control
Outline: as §2

[4] = system: foxtail, giant; experiment: Test A preemergence; type: in vivo, Setaria faberii; details: preemergence; for Foxtail, Giant plant response rating (0 to 100 scale): 125 g ai/ha, visual injury approx. 10 days after treatment; for Foxtail, Giant plant response rating: 500 g ai/ha, visual injury after approx. 10 days, 0 to 100 scale (0 no effect, 100 complete control)
Outline: as §1

[5] = system: ragweed; experiment: Test C preemergence; type: in vivo, Ambrosia elation; details: preemergence; for Plant response rating, Ragweed: 125 g ai/ha, scale 0 to 100, 0 = no effect, 100 = complete control
Outline: as §2

[6] = system: barnyardgrass; experiment: Test B flood; type: in vivo, Echinochloa crus-galli; details: 250 g ai/ha, visual rating on 0 to 100 scale (0 no effect, 100 complete control), 13 to 15 days
Outline: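 Each compound is applied to the floodwater of pots holding 2-leaf seedlings, water standing 3 cm over the soil throughout. Plants stay in a greenhouse 13 to 15 days before visual scoring against controls from 0 (no effect) to 100 (complete control).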

[7] = system: barnyardgrass; experiment: Test C preemergence; type: in vivo, Echinochloa crus-galli; details: preemergence; for Plant response rating, Barnyardgrass: 125 g ai/ha, scale 0 to 100, 0 = no effect, 100 = complete control
Outline: as §2

[8] = system: johnsongrass; experiment: Test C preemergence; type: in vivo, Sorghum halepense; details: preemergence; for Plant response rating, Johnsongrass: 125 g ai/ha, scale 0 to 100, 0 = no effect, 100 = complete control
Outline: as §2

[9] = system: barnyardgrass; experiment: Test A preemergence; type: in vivo, Echinochloa crus-galli; details: preemergence; for Barnyardgrass plant response rating (0 to 100 scale, 0 is no effect, 100 is complete control): 125 g ai/ha, visual injury approx. 10 days after treatment; for Barnyardgrass plant response rating: 500 g ai/ha, visual injury after approx. 10 days, 0 to 100 scale (0 no effect, 100 complete control)
Outline: as §1

[10] = system: velvetleaf; experiment: Test A preemergence; type: in vivo, Abutilon theophrasti; details: preemergence; for Velvetleaf plant response rating (0 to 100 scale): 125 g ai/ha, visual injury approx. 10 days after treatment; for Velvetleaf plant response rating: 500 g ai/ha, visual injury after approx. 10 days, 0 to 100 scale (0 no effect, 100 complete control)
Outline: as §1

[11] = system: ryegrass, Italian; experiment: Test C preemergence; type: in vivo, Lolium multiflorum; details: preemergence; for Plant response rating, Ryegrass, Italian: 125 g ai/ha, scale 0 to 100, 0 = no effect, 100 = complete control
Outline: as §2

[12] = system: crabgrass, large; experiment: Test C preemergence; type: in vivo, Digitaria sanguinalis; details: preemergence; for Plant response rating, Crabgrass, Large: 125 g ai/ha, scale 0 to 100, 0 = no effect, 100 = complete control
Outline: as §2

[13] = system: foxtail, giant; experiment: Test C preemergence; type: in vivo, Setaria faberii; details: preemergence; for Plant response rating, Foxtail, Giant: 125 g ai/ha, scale 0 to 100, 0 = no effect, 100 = complete control
Outline: as §2

[14] = system: morningglory; experiment: Test A preemergence; type: in vivo, Ipomoea spp.; details: preemergence; for Morningglory plant response rating (0 to 100 scale): 125 g ai/ha, visual injury approx. 10 days after treatment; for Morningglory plant response rating: 500 g ai/ha, visual injury after approx. 10 days, 0 to 100 scale (0 no effect, 100 complete control)
Outline: as §1

[15] = 125 g ai/ha, 0 to 100 scale, 0 no effect, 100 complete control
[16] = 500 g ai/ha, 0 to 100 scale (0 no effect, 100 complete control)
[17] = 31 g ai/ha, visual rating, scale 0 to 100 (0 no effect, 100 complete control), 13 to 15 days
[18] = 62 g ai/ha, scale 0 to 100 (0 no effect, 100 complete control), 13 to 15 days
[19] = 250 g ai/ha, scale 0 to 100, 0 is no effect, 100 is complete control

Structure (SMILES): CCCc1cc(C(=O)NOCC)nn1Cc1ccnc(C(F)(F)F)c1 [Compound 185]
- Velvetleaf plant response rating [1, 15]: 10
- Velvetleaf plant response rating [1, 16]: 100
- Corn plant response rating [2, 17]: 5
- Corn plant response rating [2, 18]: 25
- Plant response rating, Corn ([2]; 13 to 15 days): 45
- Corn plant response rating [2, 19]: 75
- Oilseed Rape plant response rating [3, 17]: 70
- Oilseed Rape plant response rating [3, 18]: 80
- Plant response rating, Oilseed Rape ([3]; 13 to 15 days): 85
- Oilseed Rape plant response rating [3, 19]: 100
- Foxtail, Giant plant response rating (0 to 100 scale) [4]: 100
- Foxtail, Giant plant response rating [4]: 100
- Ragweed plant response rating [5, 17]: 5
- Ragweed plant response rating [5, 18]: 75
- Plant response rating, Ragweed ([5]; 13 to 15 days): 95
- Ragweed plant response rating [5, 19]: 100
- Plant response rating, Barnyardgrass [6]: 20
- Barnyardgrass plant response rating [7, 17]: 55
- Barnyardgrass plant response rating [7, 18]: 75
- Plant response rating, Barnyardgrass ([7]; 13 to 15 days): 98
- Barnyardgrass plant response rating [7, 19]: 100
- Johnsongrass plant response rating [8, 17]: 5
- Johnsongrass plant response rating [8, 18]: 10
- Plant response rating, Johnsongrass ([8]; 13 to 15 days): 20
- Johnsongrass plant response rating [8, 19]: 60
- Barnyardgrass plant response rating (0 to 100 scale, 0 is no effect, 100 is complete control) [9]: 80
- Barnyardgrass plant response rating [9]: 100
- Velvetleaf plant response rating (0 to 100 scale) [10]: 70
- Velvetleaf plant response rating [10]: 100
- Ryegrass, Italian plant response rating [11, 17]: 0
- Ryegrass, Italian plant response rating [11, 18]: 30
- Plant response rating, Ryegrass, Italian ([11]; 13 to 15 days): 90
- Ryegrass, Italian plant response rating [11, 19]: 90
- Crabgrass, Large plant response rating [12, 17]: 80
- Crabgrass, Large plant response rating [12, 18]: 100
- Plant response rating, Crabgrass, Large ([12]; 13 to 15 days): 100
- Crabgrass, Large plant response rating [12, 19]: 100
- Foxtail, Giant plant response rating [13, 17]: 60
- Foxtail, Giant plant response rating [13, 18]: 90
- Plant response rating, Foxtail, Giant ([13]; 13 to 15 days): 98
- Foxtail, Giant plant response rating [13, 19]: 100
- Morningglory plant response rating (0 to 100 scale) [14]: 40
- Morningglory plant response rating [14]: 90

Structure (SMILES): CCOc1cc(C(=O)NC(C)C)nn1Cc1ccnc(C(F)(F)F)c1 [Compound 188]
- Velvetleaf plant response rating [1, 15]: 100
- Velvetleaf plant response rating [1, 16]: 100
- Corn plant response rating [2, 17]: 55
- Corn plant response rating [2, 18]: 85
- Plant response rating, Corn ([2]; 13 to 15 days): 98
- Corn plant response rating [2, 19]: 98
- Oilseed Rape plant response rating [3, 17]: 100
- Oilseed Rape plant response rating [3, 18]: 100
- Plant response rating, Oilseed Rape ([3]; 13 to 15 days): 100
- Oilseed Rape plant response rating [3, 19]: 100
- Foxtail, Giant plant response rating (0 to 100 scale) [4]: 100
- Foxtail, Giant plant response rating [4]: 100
- Ragweed plant response rating [5, 17]: 75
- Ragweed plant response rating [5, 18]: 95
- Plant response rating, Ragweed ([5]; 13 to 15 days): 100
- Ragweed plant response rating [5, 19]: 98
- Plant response rating, Barnyardgrass [6]: 75
- Barnyardgrass plant response rating [7, 17]: 100
- Barnyardgrass plant response rating [7, 18]: 100
- Plant response rating, Barnyardgrass ([7]; 13 to 15 days): 100
- Barnyardgrass plant response rating [7, 19]: 100
- Johnsongrass plant response rating [8, 17]: 80
- Johnsongrass plant response rating [8, 18]: 98
- Plant response rating, Johnsongrass ([8]; 13 to 15 days): 100
- Johnsongrass plant response rating [8, 19]: 100
- Barnyardgrass plant response rating (0 to 100 scale, 0 is no effect, 100 is complete control) [9]: 100
- Barnyardgrass plant response rating [9]: 100
- Velvetleaf plant response rating (0 to 100 scale) [10]: 100
- Velvetleaf plant response rating [10]: 100
- Ryegrass, Italian plant response rating [11, 17]: 70
- Ryegrass, Italian plant response rating [11, 18]: 90
- Plant response rating, Ryegrass, Italian ([11]; 13 to 15 days): 90
- Ryegrass, Italian plant response rating [11, 19]: 90
- Crabgrass, Large plant response rating [12, 17]: 100
- Crabgrass, Large plant response rating [12, 18]: 100
- Plant response rating, Crabgrass, Large ([12]; 13 to 15 days): 100
- Crabgrass, Large plant response rating [12, 19]: 100
- Foxtail, Giant plant response rating [13, 17]: 100
- Foxtail, Giant plant response rating [13, 18]: 100
- Plant response rating, Foxtail, Giant ([13]; 13 to 15 days): 100
- Foxtail, Giant plant response rating [13, 19]: 100
- Morningglory plant response rating (0 to 100 scale) [14]: 100
- Morningglory plant response rating [14]: 100

— patent US20150105252A1, “SUBSTITUTED PYRAZOLES AS HERBICIDES” (E I DU PONT DE NEMOURS AND COMPANY, priority 2013, published 2015)
